Data on two molecules can be found in PMC3482212, “Autoinducers Act as Biological Timers in Vibrio harveyi” (PLoS ONE, 2012).

The target in test [1] is T1, LuxPQ (LuxQ in interplay with LuxP) (Vibrio harveyi, UniProt P54300).
T1 construct: full-length wild-type LuxQ with C-terminal His6 in inverted membrane vesicles of E. coli TKR2000 (pNKQ); read-out phosphorylation of purified His6-LuxU; with Autoinducer 2 sensor kinase/phosphatase LuxQ
Nature of the test: inhibition of LuxU phosphorylation by [gamma-32P]ATP, membrane vesicles, SDS-PAGE autoradiography. It is filed as biochemical. As to conditions: read-out: half-maximal inhibition.

Another test concerns the target LuxN (Vibrio campbellii, UniProt A7MRY4). Put plainly: biochemical. The note with it: read-out: % inhibition at 10 μM.

Sequence of LuxN (A7MRY4 whole entry): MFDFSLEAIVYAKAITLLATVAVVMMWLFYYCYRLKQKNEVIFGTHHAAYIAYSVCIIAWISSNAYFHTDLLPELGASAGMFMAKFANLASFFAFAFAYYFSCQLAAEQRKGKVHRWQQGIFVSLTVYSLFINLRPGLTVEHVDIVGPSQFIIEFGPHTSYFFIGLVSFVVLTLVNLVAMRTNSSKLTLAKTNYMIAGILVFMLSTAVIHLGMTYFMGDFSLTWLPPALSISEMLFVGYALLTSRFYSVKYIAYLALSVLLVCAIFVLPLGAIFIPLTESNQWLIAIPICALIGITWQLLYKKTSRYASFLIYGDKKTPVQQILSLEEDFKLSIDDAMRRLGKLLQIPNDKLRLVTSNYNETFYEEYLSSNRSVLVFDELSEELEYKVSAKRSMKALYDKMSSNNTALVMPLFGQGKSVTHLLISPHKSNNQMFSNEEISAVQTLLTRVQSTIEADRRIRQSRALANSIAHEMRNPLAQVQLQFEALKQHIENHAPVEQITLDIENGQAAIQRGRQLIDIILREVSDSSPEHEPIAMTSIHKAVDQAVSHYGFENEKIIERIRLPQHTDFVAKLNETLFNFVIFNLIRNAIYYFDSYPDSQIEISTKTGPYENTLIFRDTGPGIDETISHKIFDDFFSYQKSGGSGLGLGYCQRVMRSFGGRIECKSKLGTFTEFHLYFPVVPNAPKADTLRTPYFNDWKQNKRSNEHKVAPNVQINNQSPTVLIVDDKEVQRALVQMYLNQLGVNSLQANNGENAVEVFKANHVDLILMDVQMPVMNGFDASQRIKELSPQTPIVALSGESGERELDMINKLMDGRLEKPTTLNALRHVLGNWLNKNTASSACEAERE
T1 sequence (P54302 whole entry): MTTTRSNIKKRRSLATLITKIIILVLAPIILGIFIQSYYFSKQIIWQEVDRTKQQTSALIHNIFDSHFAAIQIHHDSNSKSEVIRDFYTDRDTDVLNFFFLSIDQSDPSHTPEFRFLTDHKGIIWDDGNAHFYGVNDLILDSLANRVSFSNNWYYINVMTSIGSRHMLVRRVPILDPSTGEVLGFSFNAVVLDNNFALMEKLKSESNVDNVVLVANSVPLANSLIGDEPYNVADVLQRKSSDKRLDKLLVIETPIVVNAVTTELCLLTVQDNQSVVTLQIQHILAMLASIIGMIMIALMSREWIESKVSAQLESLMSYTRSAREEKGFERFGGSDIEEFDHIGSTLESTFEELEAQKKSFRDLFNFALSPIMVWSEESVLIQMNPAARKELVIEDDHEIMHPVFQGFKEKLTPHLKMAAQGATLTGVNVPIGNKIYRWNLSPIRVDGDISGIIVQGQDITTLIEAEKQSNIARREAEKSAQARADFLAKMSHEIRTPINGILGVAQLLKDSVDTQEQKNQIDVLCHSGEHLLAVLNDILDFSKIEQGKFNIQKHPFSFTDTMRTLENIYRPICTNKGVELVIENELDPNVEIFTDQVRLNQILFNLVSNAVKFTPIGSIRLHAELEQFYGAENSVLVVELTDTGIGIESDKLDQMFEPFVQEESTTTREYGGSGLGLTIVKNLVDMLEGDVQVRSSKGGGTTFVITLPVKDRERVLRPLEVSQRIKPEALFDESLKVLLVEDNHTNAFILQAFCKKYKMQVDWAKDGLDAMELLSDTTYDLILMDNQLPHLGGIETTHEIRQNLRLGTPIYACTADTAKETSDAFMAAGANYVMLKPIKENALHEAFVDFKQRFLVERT
T1 sequence (P54300 24-365): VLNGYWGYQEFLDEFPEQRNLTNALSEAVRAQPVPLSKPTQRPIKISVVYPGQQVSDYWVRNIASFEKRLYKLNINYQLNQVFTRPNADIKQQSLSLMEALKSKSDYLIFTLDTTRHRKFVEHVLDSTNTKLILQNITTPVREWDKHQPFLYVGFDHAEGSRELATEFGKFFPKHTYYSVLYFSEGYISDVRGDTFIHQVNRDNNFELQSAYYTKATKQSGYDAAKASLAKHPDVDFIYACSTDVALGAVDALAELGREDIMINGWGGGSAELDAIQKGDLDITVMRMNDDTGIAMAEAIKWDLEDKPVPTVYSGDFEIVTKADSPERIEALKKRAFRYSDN

Regarding `C[C@]12OC[C@H](O)[C@@]1(O)O[B-](O)(O)O2` [AI-2], the IC50 in test [1] is 5 µM.

The term inhibition denotes how much of the control response was suppressed. As for `C[C@@H](O)CC(=O)N[C@H]1CCOC1=O` [HAI-1, N-(3-hydroxybutyryl)-homoserine lactone], at LuxN, the inhibition at 10 µM turned out to be 57%.
